Several values for one entry are separate records, joined by “and”; a condition that tells them apart may be missing. Equal values may be shown once.
What was measured:
[1] = tested on: Humicola insolens unspecific peroxygenase rHinUPO, recombinant protein, SEQ ID NO 2; experiment: Enzyme kinetics of isophorone hydroxylation (GC-MS product quantification); type: biochemical; conditions: 6.25-6400 µM substrate, 100 nM enzyme, 0.5 mM H2O2, 1 min, mean of three replicates with standard errors
Excerpt: The rCciUPO (44 kDa) and rHinUPO recombinant enzymes were provided by Novozymes A/S. rCciUPO corresponds to the protein model 7249 from the sequenced C. cinerea genome available at the JGI (http://genome.jgi.doe.gov/Copci1) used in several studies (E. D. Babot, J. C. del Río, L. Kalum, A. T. Martínez and A. Gutiérrez, Biotechnol. Bioeng. 2013, 110, 2332; E. D. Babot, J. C. del Río, M. Cañellas, F. Sancho, F. Lucas, V. Guallar, L. Kalum, H. Lund, G. Gröbe, K. Scheibner, R. Ullrich, M. Hofrichter, A. T. Martínez and A. Gutiérrez, Appl. Environ. Microbiol. 2015, 81, 4130-4142; E. D. Babot, J. C. del Río, L. Kalum, A. T. Martínez and A. Gutiérrez, ChemCatChem 2015, 7, 283-290). The rHinUPO sequence has been more recently reported (Patent US 9908860 B2) and used for oxyfunctionalizations that are not catalyzed by other UPOs. Both UPOs were expressed in Aspergillus oryzae (patent WO/2008/119780).
Reactions were carried out with 6.25-6400 µM substrate and 100 nM enzyme. […] Product quantification was carried out by GC-MS using external standard curves, and kinetic parameters - turnover number (kcat), Michaelis constant (Km) and catalytic efficiency (kcat/Km) - were obtained by fitting the data to the Michaelis-Menten equation, or the corresponding variation of this equation when substrate inhibition is occurring, using SigmaPlot (Systat Softwarwe Inc., San Jose, CA, USA). […]

CYP102A1 variants = conditions: isophorone hydroxylation; when decoy molecules were used; range over variants; cited from earlier work
[2] = tested on: Chaetomium globosum unspecific peroxygenase CglUPO, wild-type, SEQ ID NO 1; experiment: Enzyme kinetics of isophorone hydroxylation (GC-MS product quantification); type: biochemical; conditions: 6.25-6400 µM substrate, 100 nM enzyme, 0.5 mM H2O2, 3 min, mean of three replicates with standard errors
Excerpt: (§1) AaeUPO (isoform II, 46 kDa), the first UPO described in 2004 (R. Ullrich and M. Hofrichter, FEBS Lett. 2005, 579, 6247-6250), is a wild-type (i.e. non-recombinant) peroxygenase purified from cultures of A. aegerita TM-A1, grown in soybean-peptone medium. MroUPO is another wild-type peroxygenase (32 kDa) purified from cultures of M. rotula DSM-25031 (German Collection of Microorganisms and Cell Cultures, Braunschweig). CglUPO (36 kDa) is a third wild-type peroxygenase recently purified from cultures of C. globosum DSM-62110.
Reactions were carried out with 6.25-6400 µM substrate and 100 nM enzyme. They were initiated adding 0.5 mM H2O2 and stopped by vigorous shaking in 5 mM sodium azide. Reaction times in which the reaction velocity was linear were previously selected: 5 min for AaeUPO, 3 min for CglUPO and 1 min for rHinUPO. All reactions were performed in triplicates. Product quantification was carried out by GC-MS using external standard curves, and kinetic parameters - turnover number (kcat), Michaelis constant (Km) and catalytic efficiency (kcat/Km) - were obtained by fitting the data to the Michaelis-Menten equation, or the corresponding variation of this equation when substrate inhibition is occurring, using SigmaPlot (Systat Softwarwe Inc., San Jose, CA, USA). […]

[3] = substrate: CC1=CC(=O)CC(C)(C)C1; experiment: as above; type: biochemical, Agrocybe aegerita; conditions: other: isophorone hydroxylation; 6.25-6400 µM substrate, 100 nM enzyme, 0.5 mM H2O2, 5 min; mean of three replicates with standard errors
Excerpt: as §1
Reactions were carried out with 6.25-6400 µM substrate and 100 nM enzyme. They were initiated adding 0.5 mM H2O2 and stopped by vigorous shaking in 5 mM sodium azide. Reaction times in which the reaction velocity was linear were previously selected: 5 min for AaeUPO, 3 min for CglUPO and 1 min for rHinUPO. All reactions were performed in triplicates. Product quantification was carried out by GC-MS using external standard curves, and kinetic parameters - turnover number (kcat), Michaelis constant (Km) and catalytic efficiency (kcat/Km) - were obtained by fitting the data to the Michaelis-Menten equation, or the corresponding variation of this equation when substrate inhibition is occurring, using SigmaPlot (Systat Softwarwe Inc., San Jose, CA, USA).
The analyses were performed with a Shimadzu GC-MS QP 2010 Ultra system, using a fused-silica DB-5HT capillary column (30 m × 0.25 mm internal diameter, 0.1 µm film thickness) from J&W Scientific. The oven was heated from 50 °C (1.5 min) to 90 °C (2 min) at 30 °C min^-1, and then from 90 °C to 250 °C (15 min) at 8 °C min^-1. The injection was performed at 250 °C and the transfer line was kept at 300 °C. Compounds were identified by comparing their mass spectra and retention times with those of the available authentic standards and with the NIST library.

Row | Molecule | Km [1] [µM] | kcat [1] [s⁻¹] | Km (CYP102A1 variants) [µM] | turnover numbers (CYP102A1 variants) [s⁻¹] | Km [2] [µM] | kcat [2] | Km [3] [µM] | kcat [3] [s⁻¹] | kcat/Km [3]
1 | CC1=CC(=O)CC(C)(C)C1 [isophorone, 3,5,5-Trimethyl-2-cyclohexen-1-one] | 288 ± 39.9 | 23.3 ± 1.4 | 380 to 440 | 2.5 to 5.5 | 243 ± 19.8 | 4.4 s⁻¹ and 3.8 ± 0.1 s⁻¹ | – | – | –
2 | Agrocybe aegerita unspecific peroxygenase AaeUPO (isoform II), wild-type, SEQ ID NO 3 (Cyclocybe aegerita) (protein, is a wild-type (i.e. non-recombinant) peroxygenase purified from cultures of A. aegerita TM-A1; made in house; host or cells: Agrocybe aegerita TM-A1 cultures (native producer, non-recombinant)) EPGLPPGPLENSSAKLVNDEAHPWKPLRPGDIRGPCPGLNTLASHGYLPRNGVATPVQIINAVQEGLNFDNQAAVFATYAAHLVDGNLITDLLSIGRKTRLTGPDPPPPASVGGLNEHGTFEGDASMTRGDAFFGNNHDFNETLFEQLVDYSNRFGGGKYNLTVAGELRFKRIQDSIATNPNFSFVDFRFFTAYGETTFPANLFVDGRRDDGQLDMDAARSFFQFSRMPDDFFRAPSPRSGTGVEVVIQAHPMQPGRNVGKINSYTVDPTSSDFSTPCLMYEKFVNITVKSLYPNPTVQLRKALNTNLDFFFQGVAAGCTQVFPYGRD | – | – | – | – | – | – | 1381.3 ± 196.7 | 20.1 ± 1.1 | 1.4±0.1 x 10^4 M^-1·s^-1

Source: EP3660147A1, “PROCESS FOR SELECTIVE SYNTHESIS OF 4-HYDROXYISOPHORONE AND 4-KETOISOPHORONE BY FUNGAL PEROXYGENASES” (Consejo Superior de Investigaciones Científicas (CSIC), priority 2018, dated 2020)
